BindingDB's records for doi:10.7270/Q2Z899TZ (Columbia University Molecular Screening Center, 2007)

Molecular target: T1, Tyrosine-protein phosphatase non-receptor type 22 (Homo sapiens, UniProt Q9Y2R2)
T1 sequence (Q9Y2R2 whole entry): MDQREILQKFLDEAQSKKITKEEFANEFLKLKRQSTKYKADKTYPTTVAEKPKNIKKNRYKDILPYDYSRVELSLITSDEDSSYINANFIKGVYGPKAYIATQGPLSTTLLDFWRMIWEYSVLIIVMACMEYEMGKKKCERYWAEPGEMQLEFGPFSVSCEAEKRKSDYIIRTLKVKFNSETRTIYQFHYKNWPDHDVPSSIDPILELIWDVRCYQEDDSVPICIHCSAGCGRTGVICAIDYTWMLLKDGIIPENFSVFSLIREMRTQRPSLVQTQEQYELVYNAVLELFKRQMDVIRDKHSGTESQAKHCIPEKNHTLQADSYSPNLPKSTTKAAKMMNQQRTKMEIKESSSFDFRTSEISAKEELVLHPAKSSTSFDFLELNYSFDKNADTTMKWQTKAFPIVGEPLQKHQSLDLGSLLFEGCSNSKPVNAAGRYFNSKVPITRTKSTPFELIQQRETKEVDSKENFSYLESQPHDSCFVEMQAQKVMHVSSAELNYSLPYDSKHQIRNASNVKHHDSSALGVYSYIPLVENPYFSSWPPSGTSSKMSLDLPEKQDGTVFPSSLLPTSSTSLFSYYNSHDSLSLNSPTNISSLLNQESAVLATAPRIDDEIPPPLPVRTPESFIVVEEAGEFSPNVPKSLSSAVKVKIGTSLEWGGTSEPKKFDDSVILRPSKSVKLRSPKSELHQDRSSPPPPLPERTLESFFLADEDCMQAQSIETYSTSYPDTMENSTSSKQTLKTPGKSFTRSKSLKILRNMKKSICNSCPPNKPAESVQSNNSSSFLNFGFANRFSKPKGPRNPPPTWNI
Assay: LYP phosphatase inhibitors, primary screen, biochemical, DiFMUP fluorescence, recombinant catalytic domain, 10 µM (AID 606)

SMILES	IC50 [nM]
Cc1ccc2c(c1C)NC(C(=O)O)C1CC=CC21 (stereo unspecified)	940
CCn1nc(-c2ccccc2)nc2c(=O)n(C)c(=O)nc1-2 [1-Ethyl-6-methyl-3-phenyl-1H-pyrimido[5,4-e][1,2,4]triazine-5,7-dione]	1660
CC(C)Cn1c(N)c(C(=O)COC(=O)c2cc(-c3ccco3)nc3ccccc23)c(=O)n(C)c1=O [2-(2-furanyl)-4-quinolinecarboxylic acid [2-[4-amino-1-methyl-3-(2-methylpropyl)-2,6-dioxo-5-pyrimidinyl]-2-oxoethyl] ester]	5810
CCCCC[C@H](O)C=C[C@H]1C=CC(=O)[C@@H]1C/C=C\CCCC(=O)O [(Z)-7-[(1R,5S)-2-oxidanylidene-5-[(E,3S)-3-oxidanyloct-1-enyl]cyclopent-3-en-1-yl]hept-5-enoic acid]	6690
O=C1C=Cc2ccccc2/C1=C/NC12CN3CCN(CN(C3)C1)C2 [MLS000071484]	> 40000
COc1ccc(Cn2c(C)nc3c(c2=O)c2nc4ccccc4nc2n3Cc2ccco2)cc1 [MLS000079944]	1780
